Reference: ChEMBL document CHEMBL4622902, “Discovery of triazolo [1,5-a] pyridine derivatives as novel JAK1/2 inhibitors” (Bioorg Med Chem Lett, 2020)

target: Tyrosine-protein kinase JAK1 (Homo sapiens, UniProt P23458); assay: Inhibition of JAK1 (unknown origin) in presence of ATP at Km concentration by caliper assay
Sequence (P23458 whole entry): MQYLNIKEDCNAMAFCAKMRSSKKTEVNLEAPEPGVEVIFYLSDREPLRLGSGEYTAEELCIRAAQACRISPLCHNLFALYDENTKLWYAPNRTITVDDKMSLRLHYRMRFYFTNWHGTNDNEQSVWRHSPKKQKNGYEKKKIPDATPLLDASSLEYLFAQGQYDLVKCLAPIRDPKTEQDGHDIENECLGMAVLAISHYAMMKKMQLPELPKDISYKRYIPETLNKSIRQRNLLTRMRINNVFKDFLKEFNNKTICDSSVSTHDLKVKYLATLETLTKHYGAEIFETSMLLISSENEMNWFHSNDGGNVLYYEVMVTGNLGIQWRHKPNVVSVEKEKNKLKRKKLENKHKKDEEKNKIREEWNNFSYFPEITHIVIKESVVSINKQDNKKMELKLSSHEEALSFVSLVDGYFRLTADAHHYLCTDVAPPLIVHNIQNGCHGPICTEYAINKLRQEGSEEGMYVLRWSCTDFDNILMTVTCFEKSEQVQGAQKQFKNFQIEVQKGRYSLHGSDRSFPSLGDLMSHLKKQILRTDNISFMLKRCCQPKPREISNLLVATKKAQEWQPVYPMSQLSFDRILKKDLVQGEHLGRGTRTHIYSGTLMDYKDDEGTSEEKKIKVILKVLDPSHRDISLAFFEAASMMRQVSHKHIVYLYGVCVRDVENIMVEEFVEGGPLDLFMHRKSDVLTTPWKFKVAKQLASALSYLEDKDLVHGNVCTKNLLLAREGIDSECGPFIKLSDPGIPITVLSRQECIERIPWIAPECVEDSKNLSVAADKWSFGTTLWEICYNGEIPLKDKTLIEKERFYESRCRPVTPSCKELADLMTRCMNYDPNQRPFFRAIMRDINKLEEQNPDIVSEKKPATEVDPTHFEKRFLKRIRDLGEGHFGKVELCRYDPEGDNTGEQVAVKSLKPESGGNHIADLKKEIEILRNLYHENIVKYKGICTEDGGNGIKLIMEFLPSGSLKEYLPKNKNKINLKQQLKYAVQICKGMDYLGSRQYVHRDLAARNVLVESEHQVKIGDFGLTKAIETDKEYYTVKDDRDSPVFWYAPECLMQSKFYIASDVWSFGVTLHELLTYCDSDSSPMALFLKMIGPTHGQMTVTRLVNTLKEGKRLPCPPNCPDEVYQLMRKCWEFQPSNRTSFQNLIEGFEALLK

IC50 | SMILES
124 nM | O=C(Nc1nc2cccc(-c3ccc(C(=O)N4CC(F)(F)C4)cc3)n2n1)C1CC1
234 nM | O=C(Nc1nc2cccc(C3=CCN(C(=O)NCC(F)(F)F)CC3)n2n1)C1CC1
230 nM | O=C(NCC(F)(F)F)c1ccc(-c2cccc3nc(NC(=O)C4CC4)nn23)cc1

target: Tyrosine-protein kinase JAK2 (Homo sapiens, UniProt O60674); assay: Inhibition of JAK2 (unknown origin) in presence of ATP at Km concentration by caliper assay
Sequence (O60674 whole entry): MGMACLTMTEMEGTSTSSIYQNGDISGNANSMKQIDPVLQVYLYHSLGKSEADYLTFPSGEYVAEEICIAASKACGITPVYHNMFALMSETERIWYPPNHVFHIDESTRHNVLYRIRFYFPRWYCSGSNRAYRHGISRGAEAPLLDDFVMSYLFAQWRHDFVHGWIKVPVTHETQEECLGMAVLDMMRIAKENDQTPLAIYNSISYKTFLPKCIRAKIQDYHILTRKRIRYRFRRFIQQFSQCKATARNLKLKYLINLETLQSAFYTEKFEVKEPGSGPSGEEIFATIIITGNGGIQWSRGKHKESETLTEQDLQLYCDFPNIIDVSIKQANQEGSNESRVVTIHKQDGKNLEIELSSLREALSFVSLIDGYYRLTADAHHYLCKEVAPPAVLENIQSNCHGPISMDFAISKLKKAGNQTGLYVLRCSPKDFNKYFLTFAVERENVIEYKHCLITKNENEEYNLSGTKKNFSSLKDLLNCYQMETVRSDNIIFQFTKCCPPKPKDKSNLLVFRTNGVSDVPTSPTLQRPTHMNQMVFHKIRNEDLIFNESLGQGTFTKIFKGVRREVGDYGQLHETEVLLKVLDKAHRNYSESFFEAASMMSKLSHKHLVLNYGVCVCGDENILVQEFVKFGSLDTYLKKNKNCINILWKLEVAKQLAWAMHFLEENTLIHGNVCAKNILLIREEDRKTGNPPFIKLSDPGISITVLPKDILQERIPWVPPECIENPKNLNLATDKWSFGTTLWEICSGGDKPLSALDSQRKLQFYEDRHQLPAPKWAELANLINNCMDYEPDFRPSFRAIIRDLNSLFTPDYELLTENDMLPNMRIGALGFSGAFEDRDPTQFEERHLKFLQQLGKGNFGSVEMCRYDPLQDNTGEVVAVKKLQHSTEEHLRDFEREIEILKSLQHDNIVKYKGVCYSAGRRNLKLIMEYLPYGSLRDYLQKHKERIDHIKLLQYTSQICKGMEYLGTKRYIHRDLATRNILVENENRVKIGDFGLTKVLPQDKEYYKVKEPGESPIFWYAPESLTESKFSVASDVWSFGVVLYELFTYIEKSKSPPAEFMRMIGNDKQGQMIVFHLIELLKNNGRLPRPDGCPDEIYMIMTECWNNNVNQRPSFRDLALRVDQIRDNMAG

SMILES | IC50
O=C(Nc1nc2cccc(C3=CCN(C(=O)C4(C(F)(F)F)CC4)CC3)n2n1)C1CC1 | 317 nM
C=CC(=O)N1CC=C(c2cccc3nc(NC(=O)C4CC4)nn23)CC1 | 424 nM
O=C(Nc1nc2cccc(C3=CCN(C(=O)NCC(F)(F)F)CC3)n2n1)C1CC1 | 347 nM
N#CC1(C(=O)N2CC=C(c3cccc4nc(NC(=O)C5CC5)nn34)CC2)CC1 | 441 nM
N#CCNC(=O)c1ccc(-c2cccc3nc(NC(=O)C4CC4)nn23)cc1 | 299 nM

Stronger by IC50, values ahead:

IC50 | SMILES
139 nM | O=C(Nc1nc2cccc(-c3ccc(C(=O)N4CC(F)(F)C4)cc3)n2n1)C1CC1
175 nM | N#CCNC(=O)N1CC=C(c2cccc3nc(NC(=O)C4CC4)nn23)CC1
192 nM | O=C(Nc1nc2cccc(C3=CCN(C(=O)C4CC4(F)F)CC3)n2n1)C1CC1 (configuration not stated)
157 nM | N#CCC(=O)N1CC=C(c2cccc3nc(NC(=O)C4CC4)nn23)CC1
55 nM | C=C(C#N)C(O)c1ccc(-c2cccc3nc(NC(=O)C4CC4)nn23)cc1 (configuration not stated)
214 nM | O=C(NCC(F)(F)F)c1ccc(-c2cccc3nc(NC(=O)C4CC4)nn23)cc1

target: T1, Tyrosine-protein kinase JAK3 (Homo sapiens, UniProt P52333); assay: Inhibition of JAK3 (unknown origin) in presence of ATP at Km concentration by caliper assay
T1 sequence (P52333 whole entry): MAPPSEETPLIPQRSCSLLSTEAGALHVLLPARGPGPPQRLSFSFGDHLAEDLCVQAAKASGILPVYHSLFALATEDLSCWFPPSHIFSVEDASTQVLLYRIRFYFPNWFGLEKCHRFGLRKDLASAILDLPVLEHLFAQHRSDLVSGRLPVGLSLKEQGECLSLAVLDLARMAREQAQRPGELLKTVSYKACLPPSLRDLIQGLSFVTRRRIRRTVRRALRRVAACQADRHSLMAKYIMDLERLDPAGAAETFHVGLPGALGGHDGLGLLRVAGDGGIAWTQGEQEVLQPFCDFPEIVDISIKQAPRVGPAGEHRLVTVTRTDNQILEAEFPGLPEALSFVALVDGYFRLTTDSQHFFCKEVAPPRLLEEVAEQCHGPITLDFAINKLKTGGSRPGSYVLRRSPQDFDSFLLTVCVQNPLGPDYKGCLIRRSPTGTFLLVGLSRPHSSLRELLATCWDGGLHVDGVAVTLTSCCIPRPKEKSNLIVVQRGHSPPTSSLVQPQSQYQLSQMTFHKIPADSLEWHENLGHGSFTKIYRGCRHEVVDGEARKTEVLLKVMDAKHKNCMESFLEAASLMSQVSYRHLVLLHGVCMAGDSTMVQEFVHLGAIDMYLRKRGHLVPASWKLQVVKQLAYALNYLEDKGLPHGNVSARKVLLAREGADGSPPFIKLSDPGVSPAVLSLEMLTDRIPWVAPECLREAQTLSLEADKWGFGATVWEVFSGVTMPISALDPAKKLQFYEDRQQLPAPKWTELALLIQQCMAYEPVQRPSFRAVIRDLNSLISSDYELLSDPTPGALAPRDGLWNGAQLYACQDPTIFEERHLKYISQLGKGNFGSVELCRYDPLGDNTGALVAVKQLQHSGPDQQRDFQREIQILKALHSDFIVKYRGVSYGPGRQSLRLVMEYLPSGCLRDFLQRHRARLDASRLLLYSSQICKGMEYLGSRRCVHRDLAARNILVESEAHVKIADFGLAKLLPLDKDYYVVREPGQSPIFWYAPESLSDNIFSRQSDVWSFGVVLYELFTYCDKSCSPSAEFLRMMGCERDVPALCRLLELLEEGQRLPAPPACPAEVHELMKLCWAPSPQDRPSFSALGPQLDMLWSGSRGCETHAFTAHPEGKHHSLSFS

IC50 | SMILES
941 nM | O=C(Nc1nc2cccc(-c3ccc(C(=O)N4CC(F)(F)C4)cc3)n2n1)C1CC1
1740 nM | O=C(Nc1nc2cccc(C3=CCN(C(=O)NCC(F)(F)F)CC3)n2n1)C1CC1
1020 nM | O=C(NCC(F)(F)F)c1ccc(-c2cccc3nc(NC(=O)C4CC4)nn23)cc1
